# According to US20190112208A1, “COMPOSITIONS EXHIBITING SYNERGY IN BIOFILM CONTROL” (SOLENIS TECHNOLOGIES, L.P., priority 2017, published 2019):
# Like-named read-outs stand apart in the source and are kept apart here.
# System: Pseudomonas putida biofilms
# Type: cell-based
# Protocol: In this work the efficacy of the agents alone and in combination were determined by measuring the number of viable cells in model biofilms remaining after treatment. The Minimum Biofilm Eradication value (MBEC) is defined as a 95% reduction in the number of viable cells compared to the untreated control. The relatively non-toxic dispersants are unable to reach that level of killing with physically possible concentrations, thus for those agents the MBEC is considered the highest value tested. Since this value is used as the divisor in the synergy index equation this highest tested value is actually an underestimate of the MBEC and thus synergy index values are also […].
# Dose response studies were performed to determine the Minimum Biofilm Eradication Concentration (MBEC) for monochloramine and SDBS alone. The MBEC is defined as the concentration of agent that reduces the viable biofilm population by 95% of the untreated control value as measured by viable plate counts. Experiments were then performed to determine the result of combining the two agents, oxidizing biocide monochloramine and dispersant SDBS, on biofilm populations. The experiments examined three concentrations of monochloramine with four concentrations of SDBS. The SDBA used in the examples was Bio-Soft™ D-4 (Stepan Company, Northfield, Ill.).
# M9YG media is a simple minimal salt medium supplemented with 500 mg/L glucose and 0.01% yeast extract. The salts composition is intended to mimic a typical cooling tower water composition. The composition of the media is made using the following procedure: 5XM9 salt composition is mixed using 64 gm Na2HPO4.7H2O, 15 grams KH2PO4, 2.5 gm NaCl and 5 grams NH4Cl in one liter of water. This is divided into 200 ml aliquots and sterilized (by autoclave). To 750 ml of sterile deionized water is added the sterile supplement solutions while stirring. A white precipitate will appear on addition of the CaCl2 but will dissolve with stirring. Supplement solution is 200 ml of 5XM9 composition, 2 ml of 1M MgSO4, 0.1 ml of 1M CaCl2, 20 ml of 20% glucose, 1 ml of 10% yeast extract, and enough water to make 1000 ml of solution. […]
# Biofilms were grown on stainless steel 316 coupons in a CDC Biofilm reactor using M9YG minimal salts growth media for a period of twenty-four hours. […] Viable cells released into the fluid were then determined by a plating method.
# Synergy indices were calculated as described in Kull et al. as in example 1.
# Dose response studies were performed to determine the Minimum Biofilm Eradication Concentration (MBEC) for monochloramine/dichloramine blend (MCA/DCA) and SDBS alone. The MBEC is defined as the concentration of agent that reduces the viable biofilm population by 95% of the untreated control value as measured by viable plate counts. […]
Molecule,"% Biofilm reduction (Example 1, 20 mg/L MCA alone) [%]","% Biofilm reduction (Example 1, 20 mg/L MCA alone, listed as monochloramine)","% Biofilm reduction (Example 1, 312 mg/L SDBS alone) [%]","% Biofilm reduction (Example 2, 312 mg/L SDBS alone) [%]"
"NCl [MCA, monochloramine]",93.58,greater than 90%,–,–
Sodium dodecylbenzenesulfonates [SDBS],–,–,48.62,84.58
